Assay results from patent publication US8071760B2, “Boron-containing porphyrin compounds and their uses” (Board of Supervisors of Louisiana State University and …, priority 2005, dated 2011).
“Also recorded” adds a separate entry of the source. Marks after values point to notes of the source that are not given here.

Tests used:
[1] = solubility in solvents and water; format: physicochemical
Excerpt: Compound 18 was converted to the water-soluble TBP Compound 19 with tert-butylammonium fluoride in THF, followed by cation exchange.

[2] = test system: human glioblastoma T98G cells; assay: Concentration-dependent cellular uptake; format: cell-based; conditions: for dependence of uptake on concentration: up to 200 μM
Description: Human glioblastoma T98G cells and cervical carcinoma HEp2 cells were obtained from ATCC. Both cell lines were maintained in 50% α-MEM/advanced MEM, supplemented with 5% fetal bovine serum. Phosphate buffered saline (PBS), fetal bovine serum, and trypsin were purchased from Gibco; Cyquant reagent and Lysosensor were purchased from Molecular Probes, and Triton X-100 was purchased from Calbiochem. Microscopy was performed on a Zeiss Axiovert 200M inverted fluorescence microscope fitted with standard Texas Red and FITC filter sets (Chroma Technology Corp.). Images were acquired with a Zeiss Axiocam MRM CCD camera fitted to the microscope, and were pseudo-colored with Adobe Photoshop® CS version 8.0. […] All medium solutions were filter-sterilized ([…] pore size) prior to use. All data obtained in the FLUOstar plate reader was analyzed using Prism 3.0 graphing software.
Human T98G cells were sub-cultured on 96-well plates at 10,000 cells/100 μL α-MEM/advanced medium per well, and were incubated for 48 h. […] A standard curve for different cell numbers was obtained by placing 100,000, 80,000, 60,000, 40,000, 20,000, 10,000, and 0 cells in the wells, followed by incubation for 3 h. A standard graph was prepared from the wells with known cell numbers. Unknown cell numbers from the experiments were determined by first adding 100 μL/well of 5 μM stock solution of Cyquant reagent in PBS, and then reading the plate on a FLUOstar plate reader using 480 nm excitation and 520 emission filters. The same procedure was followed for determining the concentration-dependent cellular uptake of porphyrin 20, but using 570 nm excitation and 650 nm emission filters.

[3] = test system: human glioblastoma T98G cells; assay: Time-dependent cellular uptake; format: cell-based; conditions: 10 μM, FIG. 12
Description: (§1) Human glioblastoma T98G cells and cervical carcinoma HEp2 cells were obtained from ATCC. Both cell lines were maintained in 50% α-MEM/advanced MEM, supplemented with 5% fetal bovine serum. Phosphate buffered saline (PBS), fetal bovine serum, and trypsin were purchased from Gibco; Cyquant reagent and Lysosensor were purchased from Molecular Probes, and Triton X-100 was purchased from Calbiochem. Microscopy was performed on a Zeiss Axiovert 200M inverted fluorescence microscope fitted with standard Texas Red and FITC filter sets (Chroma Technology Corp.). Images were acquired with a Zeiss Axiocam MRM CCD camera fitted to the microscope, and were pseudo-colored with Adobe Photoshop® CS version 8.0. Compounds 19 and 20 were dissolved in DMSO (Sigma-Aldrich) prior to being diluted into cell medium so that the final DMSO concentration never exceeded 1%. All medium solutions were filter-sterilized ([…] pore size) prior to use. All data obtained in the FLUOstar plate reader was analyzed using Prism 3.0 graphing software.
Human T98G cells were sub-cultured and incubated for 48 h as otherwise described above. A filter-sterilized, 10 μM stock solution of TBP 19 in 1% DMSO/medium was added, and the cells were incubated for 24, 16, 8, 4, 2, 1, 0.5 and 0 h. […] Known and unknown concentrations of TBP 19 were determined as described above for the concentration-dependent uptake. […]

Human HEp2 cells = assay: Intracellular localization (fluorescence microscopy, Lysosensor co-localization); format: cell-based; conditions: 50 μM, 24 h incubation, fluorescence pattern and overlay with Lysosensor; listed as TBP 19
Description: as §1
Human HEp2 cells were sub-cultured on Lab-Tek II chamber cover slips with α-MEM/advanced medium for 48 h. TBP 5 was added to each chamber to reach a final concentration of 50 μM. […] New medium containing 50 mM HEPES pH 7.4 was added, and the cells were examined immediately by fluorescence microscopy. […]

BALB/c mice = assay: Animal toxicity (clinical signs, serum chemistry, histopathology); format: in vivo; conditions: for AP / Albumin / BUN / Bilirubin / Globulin / Glucose / Total Prot. / ALT / AST: serum, blood 48 h after administration, group mean; for ALT / AST: in U/L (unit assumed)
Description: Twelve groups of two BALB/c mice each, 4-6 weeks of age and weighing 12-24 g (mean=19 g), were used for toxicity studies. There were 8 female and 16 male mice. Mice in groups 1, 3, 5, 7, and 9 were administered TBP 19 once via i.p. injection, at increasing dosages: group 1 (20 mg/kg of a 2 mg/ml solution), group 3 (40 mg/kg of a 2 mg/ml solution), group 5 (80 mg/kg of a 4 mg/ml solution), group 7 (120 mg/kg of a 4 mg/ml solution), and group 9 (160 mg/kg of a 4 mg/ml solution). Mice in groups 2, 4, 6, 8, and 10 were administered porphyrin 20 once via i.p. injection at increasing dosages: group 2 (20 mg/kg of a 2 mg/ml solution), group 4 (40 mg/kg of a 2 mg/ml solution), group 6 (80 mg/kg of a 4 mg/ml solution), group 8 (120 mg/kg of a 4 mg/ml solution), and group 10 (160 mg/kg of a 4 mg/ml solution). Two groups of mice served as vehicle controls. Mice in group 11 received sterile 4% Cremophor EL (Fluka) in PBS and served as controls for mice receiving 20, 40, and 80 mg/kg compound; while mice in group 12 received 6% Cremophor EL and served as controls for mice receiving 120 and 160 mg/kg compound.
For each compound, groups were dosed sequentially and each group was evaluated daily for signs of toxicity, including hunched posture, rough hair coat, and decreased responsiveness. Mice were anesthetized with CO2 48 h after compound administration, and blood was collected by cardiocentesis for clinical chemistry evaluation. Serum chemistry was analyzed, including glucose, aspartate aminotransferase (AST), alanine aminotransferase (ALT), alkaline phosphatase (AP), bilirubin, total protein (TP), albumin, globulin, and blood urea nitrogen (BUN). The mice were exsanguinated and necropsies were performed. Tissues, including lung, kidney, thymus, heart, Harderian gland, spleen, stomach, small intestine and colon were fixed in 10% neutral buffered formalin. The fixed tissues were processed and examined by a board-certified pathologist.

[4] = T98G cells, 3 h exposure, FIG. 11
[5] = BALB/c mice, 20 mg/kg single i.p. injection
[6] = BALB/c mice, 40 mg/kg single i.p. injection
[7] = BALB/c mice, 80 mg/kg single i.p. injection
[8] = BALB/c mice, 120 mg/kg single i.p. injection
[9] = BALB/c mice, 160 mg/kg single i.p. injection

5,10,15,20-Tetra[4-(nido-carboranyl)phenyl-tetrabenzoporphyrin [Compound 19]
solubility in polar organic solvents ([1]; such as acetone, methanol and DMSO): highly soluble | solubility in water ([1]; water): slightly soluble | concentration accumulated within cells, higher than porphyrin 20 [2, 4]: approximately 30% | dependence of uptake on concentration [2, 4]: increased with increasing concentration, in an almost linear fashion | uptake in T98G cells in comparison with carboranylporphyrin 20 ([2]; in vitro, in words): significantly higher uptake | amount within T98G cells relative to Compound 20 ([3]; after 24 h): approximately 3 times | time-dependent uptake compared with porphyrin 20 ([3]; all times 0-24 h): taken up faster and to a greater extent | site of intracellular localization (Human HEp2 cells): localization in the cellular lysosomes | toxicity to BALB/c mice (BALB/c mice; 160 mg/kg, single i.p. injection, 4 mg/mL, listed as TBP 19): non-toxicity; also recorded: non-toxic | signs of toxicity (BALB/c mice; BALB/c mice, 20-160 mg/kg single i.p. injection, daily evaluation): No signs of toxicity | serum chemistry changes attributable to compound (BALB/c mice; BALB/c mice, i.p., maximum 160 mg/kg): No serum chemistry changes were observed | clinical, biochemical, or histopathological effects attributable to administration (BALB/c mice; BALB/c mice, single i.p. injection up to 160 mg/kg): No clinical, biochemical, or histopathological effects were observed | toxicity compared with other negatively charged carboranyl-containing porphyrins (BOPP, MnBOPP, BTPP, NiNTCP-H, ZnDPE, NiDPE) (BALB/c mice; mice, preliminary results): significantly less toxic | AP (BALB/c mice; [5]): 189.5^a,c | Albumin (BALB/c mice; [5]): 2.85 g/dL | BUN (BALB/c mice; [5]): 28 mg/dL | Bilirubin (BALB/c mice; [5]): 0.15 mg/dL | Globulin (BALB/c mice; [5]): 1.8^a | Glucose (BALB/c mice; [5]): 153.5^a | Total Prot. (BALB/c mice; [5]): 4.65 g/dL | ALT (BALB/c mice; [5]): 151.5 | AST (BALB/c mice; [5]): 177.5 | AP (BALB/c mice; [6]): 201.0^b,c | Albumin (BALB/c mice; [6]): 2.8 g/dL | BUN (BALB/c mice; [6]): 27 mg/dL | Bilirubin (BALB/c mice; [6]): 0.2 mg/dL | Globulin (BALB/c mice; [6]): 1.9^a | Glucose (BALB/c mice; [6]): 219.5^c | Total Prot. (BALB/c mice; [6]): 4.7 g/dL | ALT (BALB/c mice; [6]): 96.5 | AST (BALB/c mice; [6]): 455.5 | AP (BALB/c mice; [7]): 138.0^a | Albumin (BALB/c mice; [7]): 2.75 g/dL | BUN (BALB/c mice; [7]): 25.5 mg/dL | Bilirubin (BALB/c mice; [7]): 0.2 mg/dL | Globulin (BALB/c mice; [7]): 2.35^b | Glucose (BALB/c mice; [7]): 229.5^c | Total Prot. (BALB/c mice; [7]): 5.1 g/dL | ALT (BALB/c mice; [7]): 120.0 | AST (BALB/c mice; [7]): 454.5 | AP (BALB/c mice; [8]): 161.0^a | Albumin (BALB/c mice; [8]): 2.75^a | BUN (BALB/c mice; [8]): 15.5^a,b | Bilirubin (BALB/c mice; [8]): 0.2 mg/dL | Globulin (BALB/c mice; [8]): 2.35^a | Total Prot. (BALB/c mice; [8]): 5.1^a | ALT (BALB/c mice; [8]): 29.0 | AST (BALB/c mice; [8]): 73.0 | Glucose (BALB/c mice; BALB/c mice, 120 mg/kg single i.p. injection, in mg/dL (unit assumed)): 224.5 | AP (BALB/c mice; [9]): 223.5^b | BUN (BALB/c mice; [9]): 22.5^b,c | Bilirubin (BALB/c mice; [9]): 0.25 mg/dL | Globulin (BALB/c mice; [9]): 1.95^b | Total Prot. (BALB/c mice; [9]): 4.35^b | Albumin (BALB/c mice; BALB/c mice, 160 mg/kg single i.p. injection, 160 mg/kg): lower than for other mice | ALT (BALB/c mice; [9]): 206.0 | AST (BALB/c mice; [9]): 498.0 | Glucose (BALB/c mice; BALB/c mice, 160 mg/kg single i.p. injection, in mg/dL (unit assumed)): 172.0 | Albumin (BALB/c mice; BALB/c mice, 160 mg/kg single i.p. injection, listed as TBP 5, 160 mg/kg): 2.4^b

5,10,15,20-Tetra(4′-cobaltacarboranepyridyl)porphyrin [Compound 5]
solubility in polar organic solvents ([1]; acetone, ethyl acetate, acetonitrile, DMF, and DMSO): highly soluble | solubility in methanol [1]: not

5,10,15,20-Tetra(4′-cobaltacarborane 4-hydroxyphenyl)porphyrin [Compound 13]
solubility in methanol [1]: soluble

tetra(nido-carboranylphenyl)porphyrin [Compound 20, reference compound]
dependence of uptake on concentration [2, 4]: increased with increasing concentration, in an almost linear fashion

5,10,15,20-Tetra[4-(o-carboranyl)phenyl-tetrabenzoporphyrin [Compound 18]
solubility in organic solvents ([1]; such as dichloromethane and acetone): soluble
